{
  "source": "patent US11274332B2",
  "about": "“Methods of administering 3,4-diaminopyridine” (SERB SA, priority 2011, dated 2022)",
  "tested_on": "rat hepatocytes",
  "experiment": "In vitro metabolism of 14C-amifampridine in rat hepatocytes (Example 1)",
  "format": "in vitro ADME",
  "experimental": "The objective of this hepatocyte study was to determine the extent of metabolism, complete metabolic profile and metabolite characterization of amifampridine phosphate in several species with ^14C-amifampridine phosphate for a cross species comparison. The following procedures were used to study the metabolism in rat (Example 1), dog (Example 2), and human hepatocytes (Example 3).\nThe cryopreserved hepatocytes were removed from storage, quickly thawed in a 37° C. water bath for 1 to 2 min, and transferred to a 50 ml tube containing pre-warmed InVitroGRO HT medium (Celsis Inc., Baltimore). The cell suspension was mixed by gentle inversion and the cells were pelleted by centrifugation at 50 to 75×g for 5 min. The supernatant medium was removed and the cells were resuspended in Williams' Medium E. Hepatocyte viability was assessed by using trypan blue exclusion. Hepatocyte density was determined by counting cells with a hemocytometer and the density was adjusted with Williams' Medium E to achieve a final density of 1,000,000 cells/mL. […] The supernatant medium was removed and the cells were resuspended in cold Williams' Medium E. The cell density was then determined using a hemocytometer and the density was adjusted with Williams' Medium E to achieve a final density of 1,000,000 cells/mL. […]",
  "data": [
    {"smiles": "Nc1ccncc1N", "note": "[3,4-DAP, 3,4-diaminopyridine]", "values": [
      {"measurement": "formation of single major acetylated amifampridine metabolite", "result": "extensive"}
    ]}
  ]
}
